According to ChEMBL document CHEMBL3507680, “University of Dundee, Gates Library screen for HepG2 cell viability”:

Test: Human HepG2 cell viability assay in 384 well format
Format: toxicity, cell-based
Parameters: dose 125 nL, time 70.5 hour; concentration not given beside the values
Details: HepG2 cells, read-out: Inhibition

Structure (SMILES) | cytotoxicity at 70.5 h [%]
Cc1cnc(N2CCC3(CC2)CN(c2ccsc2)C(=O)CO3)nc1 | -5
c1cncc(-c2noc(CCNc3ncnc4c3CCNCC4)n2)c1 | -7.7
CCc1noc(C2CCCCN2C(=O)c2cc(C)on2)n1 (stereo not given) | -6.42
COc1cc2c(cc1CNC(=O)Cc1cc(C)on1)OC(C)C2 (stereo not given) | -8.66
Cc1ccsc1CN1CCC(c2cc(C(C)C)n[nH]2)CC1 | -3.28
CN(CC(F)(F)F)C(=O)CNC(=O)N1CCCC(N(C)C)C1 (stereo not given) | -8.19
COC(=O)c1oc(CNC(C)(C)c2ccc3c(c2)OCCO3)cc1C | 20.9
Cc1nc(C(C)C)sc1CNC(=O)CCCN1CCCCC1 | 30.6
CN(C)C(C(=O)N1CC(c2ccccn2)C1)c1cccc(F)c1 (stereo not given) | -2.09
Cc1occc1C(=O)N1CCCC2(CCN(CCN3CCCC3)C2=O)C1 (stereo not given) | -11.9
CN(C)c1ccc(C(=O)N2CCN(C(=O)N3CCCCC3)CC2)nn1 | -18.5
CCN(CC)C(=O)Cn1cc(-c2nc(-c3ccccc3C)no2)nn1 | -9.94
NC(=O)[C@H]1CCCN(c2nccc(-c3c[nH]nc3-c3cccnc3)n2)C1 | -2.79
CCCN(CC(=O)N1CCNCC1)C(=O)c1cccc(Cl)c1 | -15.8
Cc1cc(C)cc(CN2CCCC2c2noc(C)n2)c1 (stereo not given) | 0.367
Cc1oc(C(=O)O)cc1S(=O)(=O)Nc1cccc(-n2nccc2C)c1 | -5.02
CC(=O)N1CCN(c2ccc3ccc(C(=O)NC4CCCC4)cn23)CC1 | -14.6
Cc1[nH]c(=O)c(C#N)cc1C(=O)N1C[C@@H](CN2CCCC2)C[C@H](CO)C1 | -7.24
O=C1COc2c(cccc2C(=O)N2CCCC(n3cccn3)C2)N1 (stereo not given) | 23.6
Cc1ccc(CN2C[C@H](OCC3CCN(C)CC3)[C@H]3COC[C@H]32)o1 | 4.22
CC(C)N1CCCC(N2CCOC3(CCCC3)C2)C1=O (stereo not given) | -7.02
Cc1c[nH]nc1C1CCCN1Cc1ccncc1 (stereo not given) | -4.73
CN1CCC(Cc2cnc(CNC(=O)Cc3cccc(F)c3)cn2)CC1 | -2.96
CCCSCC(=O)N1C[C@H]2CC[C@@H]1CN(c1ncccn1)C2 | -14.1
CC(C)[C@@H](CO)Nc1cc(-c2cn[nH]c2)ncn1 | 0.985
CNc1nc(C(=O)N2CCCC(COc3ccc(F)cc3)C2)cs1 (stereo not given) | 3.44
CS(=O)(=O)N1CC(c2nc(N)ncc2-c2ccc(F)cc2)C1 | -2.15

Structure (SMILES) | cytotoxicity at 70.5 h [%]
CC(C)Cc1cc(C(=O)NCC2CCCN(Cc3ccco3)C2)on1 (stereo not given) | -10.7
Oc1cc(CN2CCCCC2c2cccnc2)nc2c(F)cccc12 (stereo not given) | -2.95
CCc1nc(CN(C)C2CCN(Cc3ccc(C#N)cc3F)C2)no1 (stereo not given) | 14.4
CCn1c(CN(C)C)nnc1C1CCN(Cc2cccc(C#N)c2)CC1 | -5.02
Cc1ccnc(C2CN(Cc3ccc(-c4ccccc4C(=O)O)o3)C2)n1 | -0.616
Cc1cc(Cc2ccccc2)cc(C2CCCNC2)n1 (stereo not given) | -5.23
CCN(CC)C(=O)c1cc(C2CCCN2C)ccn1 (stereo not given) | 4.19
Cc1ccc(CNC(=O)c2nc3c(n2C)CCN(c2ncccn2)C3)o1 | -1.28
CNC(=O)C1(c2cnccn2)CCCN1C(=O)c1ccn(C)n1 (stereo not given) | -1.48
Cc1nc(CN2C[C@@H]3OCCN(c4ncc(F)cn4)[C@@H]3C2)cs1 | -11.3
NC(=O)C1CCCN1Cc1ccccc1NC(=O)Cc1cccc(F)c1 (stereo not given) | -0.431
Cc1nccn1CCCNc1ccc(Cl)c(C#N)n1 | -24.8
Oc1cccc(CN2C[C@H]3CC[C@@H]2CN(Cc2cccnc2)C3)c1 | 3.01
N#Cc1c(N)nc2c(c1-c1c[nH]nc1C1CCCCC1)CNCC2 | 18.5
Cn1cc(CN2CC[C@@H]3[C@@H]2CCN3Cc2ccc3c(c2)OCO3)cn1 | -3
O=C1NC[C@@]2(C(=O)O)CN(Cc3cccc(Oc4ccccc4)c3)C[C@@H]12 | -4.3
Cc1nn(C)c(C)c1OCC(=O)NCc1cccc(C(=O)O)c1 | 3.51
Cc1ccccc1CN(C)CC(O)COCc1ccccc1Cl (stereo not given) | 21.6
COc1ccc(CN2CCC3(CC(=O)N(c4cccc(F)c4)C3)C2)cc1 (stereo not given) | -10.4
O=C(NC1CCN(c2cccc(OC(F)(F)F)c2)C1=O)C1CCC1 (stereo not given) | -2.94
CC(Cc1cccc(Cl)c1)NC(=O)NCc1ncnn1C (stereo not given) | 11.1
CCn1cncc1CN1CCN(CC2(c3ccc(C)cc3)CC2)CC1 | 12
CC(C)(NCC(=O)NC(=O)NC1CC1)c1ccc2c(c1)OCO2 | -3.04
CCSc1ccc(C(=O)N2CC[C@](C)(O)[C@H](C)C2)s1 | -10.1
Cc1nn(C)c2ncnc(N3CCCC(OCc4ccccn4)C3)c12 (stereo not given) | 1.57
CO[C@@H]1CCN(c2nnc(C)s2)C[C@@H]1Cc1cccc(C)c1 | -0.0343
CCc1c(C(=O)N2CCCC(N(C)C)C2)cnn1C(C)(C)C (stereo not given) | -4.41

Structure (SMILES) | cytotoxicity at 70.5 h [%]
COC1CCN(CCNC(=O)C2CCCCC2)CC1 | -7.3
COc1ccc(F)cc1C(C)NC(=O)c1nnc(C)s1 (stereo not given) | -5.29
CCOc1ncccc1C(=O)N1CCCC1Cn1nc(C)cc1C (stereo not given) | 5.47
O=C(Cc1ccc2c(c1)CCO2)N1CCCCC1Cn1cccn1 (stereo not given) | -2.84
COc1cccc(CN2CCN(Cc3ccc4nonc4c3)CC2=O)c1 | -0.956
N#Cc1ccc(N2CCCC3(CCN(c4cccnc4)CC3)C2)cc1 | 51.2
Cc1cccc(N2CCN(S(=O)(=O)CCN)CC2)c1 | 21.4
CNS(=O)(=O)CCn1cc(-c2cc3c(cc2OC)CCC3)nn1 | -7.97
COc1ccc(F)cc1C[S+]([O-])CC(=O)NCC(C)C (stereo not given) | -0.815
O=C(NCC(=O)N1CCc2ccccc2C1)c1ccoc1 | 10.2
N#CCCN(C(=O)CN1CCCC1c1cccs1)c1ccccc1F (stereo not given) | 1.76
CCc1ccc(-n2c(=O)[nH]c3nc(N4CCSCC4)ncc3c2=O)cc1 | -8.65
CCCC(=O)n1ccn(S(=O)(=O)c2ccc(C)cc2)c1=O | -14.8
COc1ccc(C(C)n2ccnc2-c2cc3n(n2)CCCNC3)cc1F (stereo not given) | -0.853
Cc1nc(C)c(CC(=O)N2CCC(Oc3ccccc3)CC2)c(=O)[nH]1 | -7.9
Cc1c(-c2cc(C(F)F)nc3sc(C(N)=O)c(N)c23)cnn1C | -1.99
CC(=O)c1cccc(OCCCC(=O)NC(C#N)CC(C)C)c1 (stereo not given) | -9.77
COCCN(C)C[C@@H]1CN(C(=O)c2ccc(O)c(C)c2)C[C@@H]1CO | -2.33
CN(C)S(=O)(=O)N(C)C(c1cccc(F)c1)c1ccccn1 (stereo not given) | -19.9
Cc1ccc2c(ccn2CC(=O)NC[C@@H]2CCCN3CCCC[C@H]23)c1 | -2.59
CCN1Cc2ccccc2CC2(CCN(CC3CCC3)CC2)C1=O | 11.7
CCC(C)(COc1ncccc1Cl)NCC(=O)NC1CCCCC1 (stereo not given) | -14.9
CC(C)c1nc(C2CCCN2C(=O)c2ccc3nncn3c2)no1 (stereo not given) | 2.23
CCN1CC2(CCC1=O)CCN(C(=O)c1cn3cccnc3n1)CC2 | 34.9
CC(=O)N1CCCC(Cc2cnc(-c3c(C)nn(C)c3C)cn2)C1 (stereo not given) | -7.67
CC(C)C(CNC(=O)Nc1cn[nH]c1)N1CCOCC1 (stereo not given) | -5.6
